Results from US4191780A, “Bromhexine derivatives and process for making same” (priority 1978, dated 1980).

How the values were obtained:
[1] = Bromsulphtalein (BSP) clearance in rats treated with the lower dose; format: in vivo; settings: 30 min after 50 mg/kg BSP i.v., lower dose of drug
Method: The possibility to use BSP for the diagnosis of lesions in liver parenchyma is well known. Bromsulphtalein (BSP) clearance was made according to Carpi and Parenti (Carpi, C. and M. A. Parenti, Il Farmaco, Ed. Pr. vol. 17, page 45, 1962). Thirty minutes after the i.v. administration of 50 mg/kg BSP to control rats, the mean plasma level of the dyestuff is 80±12 mcg/ml.
% of rate showing BSP plasma levels greater than 80 mcg/ml
(control values) and 160 mcg/ml (two-fold control values)

[2] = Long-term toxicity in rats: organ weights at necropsy; format: in vivo; settings: fresh weight, daily oral 250 mg/kg Bromhexine, 350 mg/kg IFT 1026
Method: Effect of daily oral administration of 250 mg/kg Bromhexine and 350 mg/kg
organ weights of rats, expressed as grams of fresh weight.

[3] = Long-term toxicity in rats: mortality, pathology and general state; settings: rat, in vivo
Method: Long-term toxicity (16 weeks) of IFT 1026 is tested in comparison to the parent compound (Bromhexine).

[4] = Long-term toxicity in rats: hematological parameters; format: in vivo, rat; settings: daily oral Bromhexine 250 mg/kg, IFT 1026 350 mg/kg
Method: The hematological and biochemical values relating to the groups under treament with the above reported doses are shown in Tables Nos. 4 and 5. These values are virtually the same for both treated and control animals.
Effect of daily oral administration of Bromhexine 250 mg/kg
and IFT 1026 350 mg/kg on the hematological parameters in […]

[5] = test system: Cough elicited by 15% citric acid spray; assay: Antitussive activity in mice, citric acid spray cough; format: in vivo; settings: Mus musculus, oral, 1 hour after administration, confidence limits P = 0.05
Method: (§1) (6) Antitussive effect in Guinea-pigs and mice
(§2) Cough is elicited by 15% citric acid spray in both species, according to the method by Harsany et al. (Boll. Chim. Farm. 112, 691, 1973). The effect was tested 1 hour after oral administration and 30 min. after intraperitoneal application of the antitussive agents on mice and Guinea-pigs respectively.
(§3) ED50 values of the drugs are computed by the method of Litchfield and Wilcoxon (Litchfield, J. T. Jr., and Wilcoxon F., J. Pharmacol. exp. Ther. 96,99--1949).

[6] = test system: noci-ceptive stimuli; assay: Study of analgesic action on mice (both tests); format: in vivo; settings: 300 mg/kg oral
Method: (§4) Two test methods are used for establishing the action of Bromhexine and IFT 1026 on noci-ceptive stimuli in mice.
(§5) (a) Pain induced by a chemical stimulus according to the method of Siegmund (Siegmund E., Cadmier, R., and Lu, G. Proc. Soc. exp. Biol. N.Y. 95, 729--1957). The mice distributed at random into groups of 10 animals, are deprived of solid food for the 18-hour period prior to the test. […] Thirty minutes after treatment the mice are injected i.p. with 0.1 ml/10 g of a 1.5% acetic acid solution. The writhing is recorded for a 20 min. period following this i.p. injection.
(§6) (b) Pain induced by a physical stimulation according to the hot-plate test technique by Eddy and Leimbach (Eddy, N. B. and Leimbach, O., J. Pharmacol. exp.Ther. 107, 383--1953). The temperature of the plate was kept at 57° C. Groups of 12 mice are treated as described under (a) above. The reaction times are measured 15 min. before treatment (Ro) and 4 times after the administration (every 15 min). Only the maximal response is taken into account (Rmax).

[7] = Eight-day toxicity studies in mice, lethality (i.p.); format: in vivo; settings: for Total number of deaths: 8 days
Text: Eight-day toxicity studies of IFT 1026 and Bromhexine in mice.

[8] = test system: Pain induced by a physical stimulation; assay: Hot-plate Test (Eddy and Leimbach): pain induced by a physical stimulation; format: in vivo, mice; settings: mouse, 300 mg/kg oral, plate at 57° C.
Method: as §4, §6

[9] = Long-term toxicity in rats (16 weeks): mean body weight; format: in vivo
Text: Effect of daily oral administration of various doses of
IFT 1026 and Bromhexine on mean body weight of rats.

[10] = Long-term toxicity in rats: biochemical parameters; format: in vivo, rat; settings: daily oral 250 mg/kg Bromhexine, 350 mg/kg IFT 1026
[11] = test system: Cough elicited by 15% citric acid spray; assay: Antitussive activity in Guinea-pigs, citric acid spray cough; format: in vivo; settings: Cavia porcellus, ip, 0.5 h, intraperitoneal, 30 min. after application, confidence limits P = 0.05
Method: as §1, §2, §3

[12] = test system: Pain induced by a chemical stimulus; assay: Siegmund Test: pain induced by a chemical stimulus (acetic acid writhing); format: in vivo, mice; settings: mouse, 300 mg/kg oral
Method: as §4, §5

CN(Cc1cc(Br)cc(Br)c1N)C1CCCCC1 [Bromhexine, N-cyclohexyl-N-methyl-2-(2-amino-3,5-dibromo)benzylammonium chloride]
% showing BSP plasma levels >160 mcg/ml ([1]; X^2 = 0.43, N.S.): 12% | rats showing BSP plasma levels >160 mcg/ml, number/tested ([1]; X^2 = 0.43, N.S.): 2/17 | % showing BSP plasma levels >80 mcg/ml ([1]; X^2 = 0.7, N.S.): 41% | rats showing BSP plasma levels >80 mcg/ml, number/tested ([1]; X^2 = 0.7, N.S.): 7/17 | organ weight, Adrenal glands ([2]; females): 4.7 ± 0.1 10^-2 grams | organ weight, Brain ([2]; females): 19.7 ± 0.5 10^-1 grams | organ weight, Heart ([2]; females): 8.3 ± 0.2 10^-1 grams | organ weight, Kidneys ([2]; females): 18.8 ± 0.9 10^-1 grams | organ weight, Liver ([2]; females): 10.5 ± 0.2 grams | organ weight, Lungs ([2]; females): 14.4 ± 0.9 10^-1 grams | organ weight, Spleen ([2]; females): 7.9 ± 0.2 10^-1 grams | organ weight, Adrenal glands ([2]; males): 3.8 ± 0.2 10^-2 grams | organ weight, Brain ([2]; males): 14 ± 1 10^-1 grams | organ weight, Heart ([2]; males): 8.8 ± 1.4 10^-1 grams | organ weight, Kidneys ([2]; males): 18.4 ± 0.5 10^-1 grams | organ weight, Liver ([2]; males): 10.6 ± 0.2 grams | organ weight, Lungs ([2]; males): 11.6 ± 1.7 10^-1 grams | organ weight, Spleen ([2]; males): 6 ± 0.6 10^-1 grams | animals that died during the study [3]: Five | rats displaying liver steatosis [3]: Four | RBC, mean ± SE ([4]; females): 752 ± 37 10^6 /ml | WBC, mean ± SE ([4]; females): 132 ± 5 10^2 /ml | RBC, mean ± SE ([4]; males): 774 ± 63 10^6 /ml | WBC, mean ± SE ([4]; males): 168 ± 20 10^2 /ml | ED50 [5]: 194 mg/kg | Responses to algogenic stimuli [6]: not suppressed | Number of deaths at day 3 ([7]; daily dose 300 mg/k): 1 | Number of deaths at day 6 ([7]; daily dose 300 mg/k): 1 | Total number of deaths ([7]; daily dose 300 mg/k): 2/10 | Number of deaths at day 3 ([7]; daily dose 600 mg/k): 1 | Number of deaths at day 5 ([7]; daily dose 600 mg/k): 1 | Number of deaths at day 6 ([7]; daily dose 600 mg/k): 1 | Number of deaths at day 7 ([7]; daily dose 600 mg/k): 1 | Number of deaths at day 8 ([7]; daily dose 600 mg/k): 1 | Total number of deaths ([7]; daily dose 600 mg/k): 5/10 | Hot-plate Test (R max/Ro), mean ± SE [8]: 1.5 ± 0.18 | body weight, mean ± SE ([9]; females, 50 mg/kg daily oral, 0 days): 110 ± 5 g | body weight, mean ± SE ([9]; females, 50 mg/kg daily oral, 21 days): 174 ± 2 g | body weight, mean ± SE ([9]; females, 50 mg/kg daily oral, 45 days): 217 ± 4 g | body weight, mean ± SE ([9]; females, 50 mg/kg daily oral, 60 days): 229 ± 4 g | body weight, mean ± SE ([9]; females, 250 mg/kg daily oral, 0 days): 109 ± 6 g | body weight, mean ± SE ([9]; females, 250 mg/kg daily oral, 21 days): 158 ± 5 g | body weight, mean ± SE ([9]; females, 250 mg/kg daily oral, 45 days): 206 ± 4 g | body weight, mean ± SE ([9]; females, 250 mg/kg daily oral, 60 days): 230 ± 3 g | body weight, mean ± SE ([9]; females, 1000 mg/kg daily oral, 0 days): 117 ± 6 g | body weight, mean ± SE ([9]; females, 1000 mg/kg daily oral, 21 days): 147 ± 13 g | body weight, mean ± SE ([9]; females, 1000 mg/kg daily oral, 45 days): 157 ± 7 g | body weight, mean ± SE ([9]; females, 1000 mg/kg daily oral, 60 days): 188 ± 12 g | body weight, mean ± SE ([9]; males, 50 mg/kg daily oral, 0 days): 115 ± 9 g | body weight, mean ± SE ([9]; males, 50 mg/kg daily oral, 21 days): 225 ± 6 g | body weight, mean ± SE ([9]; males, 50 mg/kg daily oral, 45 days): 295 ± 7 g | body weight, mean ± SE ([9]; males, 50 mg/kg daily oral, 60 days): 365 ± 7 g | body weight, mean ± SE ([9]; males, 250 mg/kg daily oral, 0 days): 118 ± 12 g | body weight, mean ± SE ([9]; males, 250 mg/kg daily oral, 21 days): 218 ± 7 g | body weight, mean ± SE ([9]; males, 250 mg/kg daily oral, 45 days): 285 ± 8 g | body weight, mean ± SE ([9]; males, 250 mg/kg daily oral, 60 days): 355 ± 9 g | body weight, mean ± SE ([9]; males, 1000 mg/kg daily oral, 0 days): 110 ± 7 g | body weight, mean ± SE ([9]; males, 1000 mg/kg daily oral, 21 days): 180 ± 9 g | body weight, mean ± SE ([9]; males, 1000 mg/kg daily oral, 45 days): 250 ± 8 g | body weight, mean ± SE ([9]; males, 1000 mg/kg daily oral, 60 days): 290 ± 12 g | variations in the body weights versus control group ([9]; rats, exception: Bromhexine 1000 mg/kg/day): lower values than their control group | A/G ratio (Albumin/Globulin), mean ± SE ([10]; females): 2.6 ± 0.1 | BUN, mean ± SE ([10]; females): 44.9 ± 4 mg % | GLUCOSE, mean ± SE ([10]; females): 77.1 ± 9 mg % | SGOT, mean ± SE ([10]; females): 24.1 ± 0.5 Units/ml | SGPT, mean ± SE ([10]; females): 12.6 ± 0.3 Units/ml | TOTAL PROTEIN, mean ± SE ([10]; females): 25.8 ± 1.1 mg/mL | A/G ratio (Albumin/Globulin), mean ± SE ([10]; males): 2.4 ± 0.2 | BUN, mean ± SE ([10]; males): 34.5 ± 3 mg % | GLUCOSE, mean ± SE ([10]; males): 88.5 ± 6 mg % | SGOT, mean ± SE ([10]; males): 24.8 ± 0.5 Units/ml | SGPT, mean ± SE ([10]; males): 12.7 ± 0.15 Units/ml | TOTAL PROTEIN, mean ± SE ([10]; males): 27.1 ± 2.5 mg/mL | ED50 [11]: 143 mg/kg | Siegmund Test, number of writhings for a 20 min. period, mean ± SE [12]: 32 ± 3
